Laboratory results from patent publication US8722849B2, “Polypeptides” (Novo Nordisk A/S, priority 2011, dated 2014).
In brackets after ≈: the same amount, converted by molar mass. Where two headings read alike, the source gives them in different places. Starred links: 1 amine or outer side, 2 acyl side, 3 side chain; linkers in the order of their positions; H or OH if unused. Positions of bridges follow the written chain, without caps; N, C: chain ends. Residues, ends and D or L forms follow the SMILES beside them. *: point of attachment. C20 diacid = O=C(O)CCCCCCCCCCCCCCCCCCC(=O)*; γGlu = O=C(O)[C@H](CCC(=O)[*:2])N[*:1]

Assays:
[1] = target: T1, human calcitonin receptor (Homo sapiens, UniProt P30988); test: Assay (II)a functional CRE-luciferase assay, human calcitonin receptor; format: cell-based; conditions: Table 7; human calcitonin (CTa) receptor
T1 construct: expressed in transfected cells; host or cells: BHK570
T1 sequence (P30988 25-474): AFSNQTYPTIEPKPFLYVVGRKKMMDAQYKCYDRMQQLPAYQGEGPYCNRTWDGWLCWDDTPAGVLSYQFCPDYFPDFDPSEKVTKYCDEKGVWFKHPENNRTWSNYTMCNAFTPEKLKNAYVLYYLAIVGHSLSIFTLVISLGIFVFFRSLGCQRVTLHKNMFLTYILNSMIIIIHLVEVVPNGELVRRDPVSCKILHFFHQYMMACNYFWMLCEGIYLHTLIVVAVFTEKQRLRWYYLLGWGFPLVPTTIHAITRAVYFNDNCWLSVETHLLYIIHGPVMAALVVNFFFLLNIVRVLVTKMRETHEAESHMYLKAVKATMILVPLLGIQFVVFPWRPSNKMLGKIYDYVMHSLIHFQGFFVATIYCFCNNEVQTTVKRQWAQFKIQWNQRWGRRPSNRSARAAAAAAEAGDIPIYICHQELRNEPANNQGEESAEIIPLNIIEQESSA

[2] = target: T2, human amylin receptor (amylin 3(a) receptor: human calcitonin receptor + RAMP-3) (Homo sapiens, UniProt O60896+P30988); test: Assay (II)a functional CRE-luciferase assay, human amylin receptor; format: cell-based; conditions: Table 2; BHK amylin 3(a)-receptor/CRE-luc cells
T2 construct: expressed in transfected cells; host or cells: BHK570
T2 sequence (P30988 25-474): T1 sequence (P30988 25-474)
T2 sequence (O60896 24-148 partner): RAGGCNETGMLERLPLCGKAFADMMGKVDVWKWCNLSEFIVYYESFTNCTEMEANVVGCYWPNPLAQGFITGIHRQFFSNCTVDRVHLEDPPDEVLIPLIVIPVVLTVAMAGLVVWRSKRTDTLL

[3] = target: T3, rat calcitonin (a) receptor (Rattus norvegicus, UniProt P32214); test: Assay (II)b functional cAMP FlashPlate assay, rat calcitonin receptor; format: cell-based; conditions: Table 11; read-out: CTa receptor rat EC50
T3 construct: expressed in transfected cells; host or cells: BHK tk'ts 13
T3 sequence (P32214 25-479 isoform P32214-2 limits assumed): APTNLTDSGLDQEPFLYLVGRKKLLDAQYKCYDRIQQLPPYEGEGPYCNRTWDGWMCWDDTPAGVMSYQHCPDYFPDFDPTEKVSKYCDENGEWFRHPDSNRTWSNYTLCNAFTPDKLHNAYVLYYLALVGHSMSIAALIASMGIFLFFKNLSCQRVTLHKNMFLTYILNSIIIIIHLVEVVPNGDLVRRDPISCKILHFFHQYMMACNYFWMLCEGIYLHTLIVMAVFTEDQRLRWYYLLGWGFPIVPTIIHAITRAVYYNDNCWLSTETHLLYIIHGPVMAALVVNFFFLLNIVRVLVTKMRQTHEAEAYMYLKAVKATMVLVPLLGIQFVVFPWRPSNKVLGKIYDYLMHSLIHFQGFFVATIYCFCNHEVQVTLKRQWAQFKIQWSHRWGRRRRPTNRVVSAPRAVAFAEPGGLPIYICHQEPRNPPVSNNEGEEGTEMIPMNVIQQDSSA
In short: (§1)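 cAMP accumulation in transiently transfected BHK tk'ts 13 cells, 100.000 cells/well, expressing rat calcitonin(a) receptor or its RAMP3 co-expression form (amylin 3(a)): 30 min stimulation with IBMX, 24 hours post-transfection. Readout by competition of cellular versus radiolabelled cAMP in FlashPlates, scintillation counted after 3 h.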

[4] = Assay (IX) pK, determination of T½ in mini-pig; format: in vivo, Göttingen mini-pigs; conditions: male, Göttingen, iv, 2 nmol/kg; minipig; plasma terminal half-life
[5] = Assay (IV) determination of solubility; format: physicochemical
In short: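 Eight 100 mM buffers (glycylglycine pH 3.0–5.0, bistrispropane pH 6.0–8.0) each received an equal volume of polypeptide dissolved in water at ~500 nmol/ml. Soluble polypeptide was measured by HPLC following 18 hours at room temperature and centrifugation.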

[6] = target: T4, rat amylin 3(a) receptor (rat calcitonin(a) receptor + rat RAMP3) (Rattus norvegicus, UniProt P32214+Q9JJ73); test: Assay (II)b functional cAMP FlashPlate assay, rat amylin receptor; format: cell-based; conditions: Table 11
T4 construct: expressed in transfected cells; host or cells: BHK tk'ts 13
T4 sequence (P32214 25-479 isoform P32214-2 limits assumed): T3 sequence (P32214 25-479 isoform P32214-2 limits assumed)
T4 sequence (Q9JJ73 23-147 partner): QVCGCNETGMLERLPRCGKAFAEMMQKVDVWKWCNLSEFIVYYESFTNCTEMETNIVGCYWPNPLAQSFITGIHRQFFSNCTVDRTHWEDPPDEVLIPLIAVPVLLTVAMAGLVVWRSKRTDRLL
In short: as §1

[7] = bistrispropane buffer, pH 6, pH 6.0, read-out: Solubility pH 6.0
[8] = bistrispropane buffer, pH 6.5, pH 6.5, read-out: Solubility pH 6.5
[9] = bistrispropane buffer, pH 7, pH 7.0, 18 hours at room temperature, Table 3, read-out: Solubility pH 7.0
[10] = bistrispropane buffer, pH 7, pH 7.0, read-out: Solubility pH 7.0
[11] = bistrispropane buffer, pH 7.5, pH 7.5, read-out: Solubility pH 7.5
[12] = bistrispropane buffer, pH 8, pH 8.0, read-out: Solubility pH 8.0
[13] = glycylglycine buffer, pH 3, pH 3.0, read-out: Solubility pH 3.0
[14] = glycylglycine buffer, pH 4, pH 4.0, 18 hours at room temperature, Table 2, read-out: Solubility pH 4.0
[15] = glycylglycine buffer, pH 4, pH 4.0, read-out: Solubility pH 4.0
[16] = glycylglycine buffer, pH 5, pH 5.0, read-out: Solubility pH 5.0
[17] = bistrispropane buffer, pH 7, pH 7.0, Table 8, read-out: Solubility pH 7.0
[18] = bistrispropane buffer, pH 7, pH 7.0, Table 9, read-out: Solubility pH 7.0
[19] = bistrispropane buffer, pH 7.5, pH 7.5, Table 9, read-out: Solubility pH 7.5

Row | SMILES | EC50 [1] | EC50 [2] | EC50 [3] | half-life [4] | solubility at 18 h [5, 7] | solubility at 18 h [5, 8] | solubility at 18 h [5, 9] | solubility at 18 h [5, 10] | solubility at 18 h [5, 11] | solubility at 18 h [5, 12] | solubility at 18 h [5, 13] | solubility at 18 h [5, 14] | solubility at 18 h [5, 15] | solubility at 18 h [5, 16] | EC50 [6] | solubility at 18 h [5, 17] | solubility at 18 h [5, 18] | solubility at 18 h [5, 19] | solubility at 18 h ([5]; pH 8.0, read-out: Solubility pH 8.0)
1 | CC[C@H](C)[C@H](NC(=O)[C@@H]1CCCN1C(=O)CNC(=O)[C@H](Cc1ccccc1)NC(=O)[C@H](CC(N)=O)NC(=O)[C@H](CC(N)=O)NC(=O)[C@H](CO)NC(=O)[C@H](CO)NC(=O)[C@H](Cc1c[nH]cn1)NC(=O)[C@H](Cc1cnc[nH]1)NC(=O)[C@H](CC(C)C)NC(=O)[C@H](Cc1ccccc1)NC(=O)[C@H](CCC(=O)O)NC(=O)[C@H](C)NC(=O)[C@H](CC(C)C)NC(=O)[C@H](CCCNC(=N)N)NC(=O)[C@H](CCC(N)=O)NC(=O)[C@@H](NC(=O)[C@H](C)NC(=O)[C@@H]1CSSC[C@H](NC(=O)[C@H](CCCCN)NC(=O)CC[C@H](NC(=O)CCCCCCCCCCCCCCCCCCC(=O)O)C(=O)O)C(=O)N[C@@H](CC(N)=O)C(=O)N[C@@H]([C@@H](C)O)C(=O)N[C@@H](C)C(=O)N[C@@H]([C@@H](C)O)C(=O)N1)[C@@H](C)O)C(=O)N[C@@H](CC(C)C)C(=O)N1CCC[C@H]1C(=O)N1CCC[C@H]1C(=O)N[C@H](C(=O)N[C@@H](CC(N)=O)C(=O)N[C@H](C(=O)NCC(=O)N[C@@H](CO)C(=O)N[C@@H](Cc1cnc[nH]1)C(=O)N[C@H](C(=O)N[C@@H](Cc1ccc(O)cc1)C(N)=O)[C@@H](C)O)C(C)C)[C@@H](C)O [Example 55, N-alpha-[(S)-4-Carboxy-4-(19-carboxynonadecanoylamino)butyryl]-[Glu14,His17,His35]-pramlintide] ({C20 diacid-γGlu}-KCNTATCATQRLAEFLHHSSNNFGPILPPTNVGSHTY-NH2; disulfide 2-7) | 0.163 nM | 0.152 nM | 0.673 nM | 73 h | > 200 µM | 146 µM (≈ 654 µg/mL) | 102 µM (≈ 459 µg/mL) | 102 µM (≈ 459 µg/mL) | 108 µM (≈ 486 µg/mL) | 146 µM (≈ 654 µg/mL) | > 200 µM | > 200 µM | > 200 µM | > 200 µM | 0.262 nM |  |  |  | 
2 | CC[C@H](C)[C@H](NC(=O)[C@@H]1CCCN1C(=O)CNC(=O)[C@H](Cc1ccccc1)NC(=O)[C@H](CC(N)=O)NC(=O)[C@H](CC(N)=O)NC(=O)[C@H](CO)NC(=O)[C@H](CO)NC(=O)[C@H](Cc1c[nH]cn1)NC(=O)[C@H](Cc1cnc[nH]1)NC(=O)[C@H](CC(C)C)NC(=O)[C@H](Cc1ccccc1)NC(=O)[C@H](CCC(=O)O)NC(=O)[C@H](C)NC(=O)[C@H](CC(C)C)NC(=O)[C@H](CCCNC(=N)N)NC(=O)[C@H](CCC(N)=O)NC(=O)[C@@H](NC(=O)[C@H](C)NC(=O)[C@@H]1CSSC[C@H](NC(=O)[C@H](CCCCN)NC(=O)CC[C@H](NC(=O)CCCCCCCCCCCCCCCCCCC(=O)O)C(=O)O)C(=O)N[C@@H](CC(N)=O)C(=O)N[C@@H]([C@@H](C)O)C(=O)N[C@@H](C)C(=O)N[C@@H]([C@@H](C)O)C(=O)N1)[C@@H](C)O)C(=O)N[C@@H](CC(C)C)C(=O)N1CCC[C@H]1C(=O)N1CCC[C@H]1C(=O)N[C@H](C(=O)N[C@@H](CC(N)=O)C(=O)N[C@H](C(=O)NCC(=O)N[C@@H](CO)C(=O)N[C@@H](CC(N)=O)C(=O)N[C@H](C(=O)N1CCC[C@H]1C(N)=O)[C@@H](C)O)C(C)C)[C@@H](C)O [Example 52, N-alpha-[(S)-4-Carboxy-4-(19-carboxynonadecanoylamino)butyryl]-[Glu14,His17,Pro37]-pramlintide] ({C20 diacid-γGlu}-KCNTATCATQRLAEFLHHSSNNFGPILPPTNVGSNTP-NH2; disulfide 2-7) | 0.0537 nM | 0.062 nM | 0.076 nM | 105 h | > 200 µM | > 200 µM | > 200 µM | > 200 µM | > 200 µM | > 200 µM | > 200 µM | > 200 µM | > 200 µM | > 200 µM | 0.16 nM | > 200 µM | > 200 µM | > 200 µM | 
3 | CC[C@H](C)[C@H](NC(=O)[C@@H]1CCCN1C(=O)CNC(=O)[C@H](Cc1ccccc1)NC(=O)[C@H](CC(N)=O)NC(=O)[C@H](CC(N)=O)NC(=O)[C@H](CO)NC(=O)[C@H](CO)NC(=O)[C@H](Cc1c[nH]cn1)NC(=O)[C@H](CCCNC(=N)N)NC(=O)[C@H](CC(C)C)NC(=O)[C@H](Cc1ccccc1)NC(=O)[C@H](CCC(=O)O)NC(=O)[C@H](C)NC(=O)[C@H](CC(C)C)NC(=O)[C@H](CCCNC(=N)N)NC(=O)[C@H](CCC(N)=O)NC(=O)[C@@H](NC(=O)[C@H](C)NC(=O)[C@@H]1CSSC[C@H](NC(=O)[C@H](CCCCN)NC(=O)CC[C@H](NC(=O)CCCCCCCCCCCCCCCCCCC(=O)O)C(=O)O)C(=O)N[C@@H](CC(N)=O)C(=O)N[C@@H]([C@@H](C)O)C(=O)N[C@@H](C)C(=O)N[C@@H]([C@@H](C)O)C(=O)N1)[C@@H](C)O)C(=O)N[C@@H](CC(C)C)C(=O)N1CCC[C@H]1C(=O)N1CCC[C@H]1C(=O)N[C@H](C(=O)N[C@@H](CC(N)=O)C(=O)N[C@H](C(=O)NCC(=O)N[C@@H](CO)C(=O)N[C@@H](Cc1cnc[nH]1)C(=O)N[C@H](C(=O)N[C@@H](Cc1ccc(O)cc1)C(N)=O)[C@@H](C)O)C(C)C)[C@@H](C)O [Example 57, N-alpha-[(S)-4-Carboxy-4-(19-carboxynonadecanoylamino)butyryl]-[Glu14,Arg17,His35]-pramlintide] ({C20 diacid-γGlu}-KCNTATCATQRLAEFLRHSSNNFGPILPPTNVGSHTY-NH2; disulfide 2-7) | 0.387 nM | 0.111 nM | 2.84 nM | 68 h | > 200 µM | > 200 µM | > 200 µM | > 200 µM | 121 µM (≈ 544 µg/mL) |  | > 200 µM | > 200 µM | > 200 µM | > 200 µM | 0.511 nM | > 200 µM | > 200 µM | 121 µM (≈ 544 µg/mL) | 80 µM (≈ 360 µg/mL)
